These results are taken from BindingDB's records for patent US10562890 (University of Virginia Patent Foundation, 2020).

As usually defined, the pIC50 is −log10 of the IC50, conventionally taken in molar units.

For the assay, the target named is T1, Core-binding factor subunit beta (Homo sapiens, UniProt Q13951).
T1 sequence (Q13951 whole entry): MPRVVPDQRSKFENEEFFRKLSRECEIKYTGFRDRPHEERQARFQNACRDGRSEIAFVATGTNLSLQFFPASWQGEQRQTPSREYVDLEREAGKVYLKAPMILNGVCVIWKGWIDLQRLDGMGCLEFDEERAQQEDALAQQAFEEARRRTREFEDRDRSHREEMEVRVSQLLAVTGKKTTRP
Put plainly: Fluorescence Resonance Energy Transfer (FRET) Assay. The text has this:
FRET assay can be used to effectively monitor the inhibition of CBF binding to the Runt domain of RUNX proteins (as well as for CBFβ-SMMHC binding to the Runt domain of RUNX proteins). For the assay, the green fluorescent protein derivative Cerulean is fused to the N-terminus of the Runt domain and the green fluorescent protein derivative Venus to the N-terminus of CBFβ.

pIC50: −log10 of the molar value.

For the compound `FC(F)(F)Oc1ccc2[nH]c(-c3ccc(OCCN4CCN(Cc5ccccc5)CC4)cn3)nc2c1` [US10562890, Compound Al-14-95], the pIC50 was 5.58. The value for `COc1cc(OCCN2CCN(Cc3ccccc3)CC2)cnc1-c1nc2cc(OC(F)(F)F)ccc2[nH]1` [US10562890, Compound Al-14-100] was 5.67.
